{"source": "patent US20260297164A1", "about": "“ANTI-FIBROTIC PEPTIDES AND USES THEREOF” (Deackt, Inc., priority 2021, published 2026)", "test_system": "autophagy in lung fibroblasts", "assay": "TGF-β1 effect on autophagy (LC3, p62) in lung fibroblasts", "assay_type": "cell-based, mouse", "details": "TGF-β1 10 ng/ml, 24 h", "experimental": "FIG. 3. CD148 deficiency enhances PI3K/Akt/mTOR signaling which results in low autophagy, high p62 expression in lung fibroblasts. (A) Mouse lung fibroblasts were isolated from Ptprj^fl/fl Col1a2^Cre-ER(T)+/0 mice (Ptprj−/−) and Col1a2^Cre-ER(T)+/0 mice (WT) and then treated with 4-OHT (1 μM) for 24 h. After 4-OHT treatment, cells were exposed to TGF-β1 (10 ng/ml) for 24 h. After stimulation, cells were harvested, and the expression of p-p85 (Tyr458), p-Akt (Ser473), pmTOR (Ser2448), p-p70 S6 kinase (Thr389), p-S6 ribosomal protein (Ser235/236) and CD148 (n=4 for each condition) in lysates was determined by Western immunoblotting and corresponding densitometry (ImageJ software). Data were normalized to corresponding dephospho-forms or GAPDH. (B) WT and Ptprj−/− cells were stimulated with TGF-β1 (10 ng/ml) for 24 h. Then cells were lysed and LC3-I and -II and p62 were measured by western blot (n=4). […] Then, autophagy flux was measured by LC3-II accumulation in the absence or presence of lysosomal acidification inhibitor chloroquine (25 μM) at 2, 4 and 6 h (n=4). […] LC3 puncta positive cells were quantified using ImageJ (D). […]\nPolyacrylamide gel electrophoresis and immunoblotting were performed according to standard methods. […] The signals were detected by ECL (Thermo Fisher Scientific, Waltham, MA). […]"}
{"substance": "TGF-β1", "values": [{"measurement": "autophagy (LC3-II relative to LC3-I)", "result": "downregulated autophagy"}, {"measurement": "p62 expression", "result": "increased p62 expression"}]}
